Assay results published in patent publication US20080274522A1, “METHOD FOR THE PRODUCTION OF 2-BUTANONE” (priority 2007, published 2008).

Columns and labels:
[1] = tested on: B12-independent diol dehydratase; settings: Hartmanis et al. (1986); cited from earlier work
E. coli strain BW25113 = assay: Survival of E. coli in MEK shock; type: cell-based, Escherichia coli; settings: for % Survival at 28° C. / % Survival at 37° C.: 30 min, average of duplicate experiments
Description: Survival of MEK shock was tested at exposure temperatures of 28° C. or 37° C.

[2] = tested on: Lactobacillus plantarum PN0512; assay: Growth of L. plantarum PN0512 in the presence of butanols at different temperatures (OD600); type: cell-based; design: key to Growth of L. plantarum PN0512 in the presence of 1-butanol / Growth of L. plantarum PN0512 in the presence of isobutanol / Growth of L. plantarum PN0512 in the presence of 2-butanol: +: growth observed as an increase in OD600.; −: no growth observed, i.e. no change in OD600
Description: Tolerance levels of bacterial strain Lactobacillus plantarum PN0512 (ATCC # PTA-7727) were determined at 25° C., 30° C. and 37° C. as follows. The strain was cultured in S30L medium (i.e., 10 mM ammonium sulfate, 5 mM potassium phosphate buffer, pH 7.0, 50 mM MOPS, pH 7.0, 2 mM MgCl2, 0.7 mM CaCl2, 50 μM MnCl2, 1 μM FeCl3, 1 μM ZnCl2, 1.72 μM CuCl2, 2.53 μM COCl2, 2.42 μM Na2MoO4, 2 μM thiamine hydrochloride, 10 mM glucose, and 0.2% yeast extract). An overnight culture in the absence of any test compound was started in 15 mL of the S30L medium in a 150 mL flask, with incubation at 37° C. in a shaking water bath. The next morning, the overnight culture was diluted into three 500 mL flasks containing 150 mL of fresh medium to an initial OD600 of about 0.08. Each flask was incubated in a shaking water bath, one each at 25° C., 30° C. and 37° C. Each large culture was allowed to acclimate at the test temperature for at least 0.5 h. […] Growth was followed by measuring OD600 for six hours after addition of the compounds.

[3] = tested on: Erwinia amino alcohol O-phosphate lyase; assay: Aminopropanol O-phosphate lyase assay (MBTH, OD670); type: biochemical, Erwinia carotovora subsp. atroseptica; settings: 10 mM substrate, 37° C.
Description: The pBAD.KA-AT plasmid was transformed into the E. coli TOP10 strain. A 50 mL culture of TOP10/pBAD.KA-AT strain was grown to mid log phase (OD600=0.6) in LB, 100 μg/mL ampicillin media at 37° C. with shaking at 250 rpm. The culture was induced by addition of L-arabinose to a final concentration of 0.1% (w/v), and it was further incubated at 37° C. for 5 h before harvesting by centrifugation. The cell pellet was resuspended in ice cold 50 mM Tris-HCl, pH 8.0, and disrupted by sonication on ice with a Fischer Sonic Model 300 Dismembrator (Fischer, Pittsburgh, Pa.) at 50% power, repeating four cycles of 30 seconds sonication with 60 seconds rest in-between each cycle. Each sonicated sample was centrifuged (15,000×g, 4 min, 4° C.). Clarified cell free extracts were analyzed for protein expression level and amino alcohol O-phosphate lyase activity.
The aminopropanol O-phosphate lyase assay was performed as described by Jones et al. (1973, Biochem. J. 134:167-182) and G. Gori et al. (1995, Chromatographia 40:336) The formation of propionaldehyde from aminopropanol O-phosphate was assayed calorimetrically with MBTH, which allows the detection of aldehyde formation. The reaction was performed as follows. In a 1 mL reaction, 100 μg cell free extract of E. coli TOP10/pBAD.KA-AT was added to 10 mM DL-1-amino-2-propanol O-phosphate in 100 mM Tris-HCl, pH 7.8, with 0.1 mM PLP. The reaction was incubated at 37° C. for 10 min and 30 min, with an aliquot of 100 μL reaction mixture removed at each time point and mixed with 100 μL of 6 mg/mL MBTH in 375 mM glycine-HCl, pH 2.7. This mixture was incubated at 100° C. for 3 min, cooled on ice for 15-30 s, and 1 mL of 3.3 mg/mL FeCl3.6H2O (in 10 mM HCl) was added, followed by incubation for 30 min at room temperature. The absorbance of the reaction mixture which contains the aldehyde-MBTH adduct, was measured at 670 nm. In the presence of the aminopropanol phosphate substrate, PLP and cell free extract, formation of aldehyde was detected, as indicated by an Abs670 that was higher than the control background of up to 0.3. In the absence of either the substrate or the cell free extract, no aldehyde formation was detected. In the absence of added PLP, somewhat less amount aldehyde was detected, presumably due to the presence of PLP in the cell free extract.

[4] = Sample 2: induced cell free extract, PLP (+)
[5] = Sample 4: induced cell free extract, PLP (−)

CC(O)C(C)O (centres unmarked) [2,3-butanediol]
Activity relative to the activity towards ethanediol [1]: less than 1%

CCC(C)=O [MEK, 2-butanone]
Concentration with full survival (E. coli strain BW25113; 28° C.): 6 % w/v | Concentration with full survival (E. coli strain BW25113; 37° C.): 4 % w/v | Concentration with no survival (E. coli strain BW25113; 37° C.): 6 % w/v | % Survival at 28° C. (E. coli strain BW25113; MEK 4 % w/v): 100% | % Survival at 37° C. (E. coli strain BW25113; MEK 4 % w/v): 100% | % Survival at 28° C. (E. coli strain BW25113; MEK 6 % w/v): 100% | % Survival at 37° C. (E. coli strain BW25113; MEK 6 % w/v): 0% | % Survival at 28° C. (E. coli strain BW25113; MEK 8 % w/v): 0.002% | % Survival at 37° C. (E. coli strain BW25113; MEK 8 % w/v): 0%

CCC(C)O (centres unmarked) [2-butanol]
Growth of L. plantarum PN0512 in the presence of 2-butanol ([2]; 1.8 % w/v, 37° C.): + | Growth of L. plantarum PN0512 in the presence of 2-butanol ([2]; 2.1 % w/v, 37° C.): + | Growth of L. plantarum PN0512 in the presence of 2-butanol ([2]; 2.9 % w/v, 25° C.): + | Growth of L. plantarum PN0512 in the presence of 2-butanol ([2]; 2.9 % w/v, 30° C.): + | Growth of L. plantarum PN0512 in the presence of 2-butanol ([2]; 2.9 % w/v, 37° C.): + | Growth of L. plantarum PN0512 in the presence of 2-butanol ([2]; 3.1 % w/v, 37° C.): + | Growth of L. plantarum PN0512 in the presence of 2-butanol ([2]; 3.6 % w/v, 37° C.): + | Growth of L. plantarum PN0512 in the presence of 2-butanol ([2]; 3.8 % w/v, 25° C.): + | Growth of L. plantarum PN0512 in the presence of 2-butanol ([2]; 3.8 % w/v, 30° C.): + | Growth of L. plantarum PN0512 in the presence of 2-butanol ([2]; 3.8 % w/v, 37° C.): + | Growth of L. plantarum PN0512 in the presence of 2-butanol ([2]; 4.0 % w/v, 30° C.): + | Growth of L. plantarum PN0512 in the presence of 2-butanol ([2]; 4.3 % w/v, 25° C.): + | Growth of L. plantarum PN0512 in the presence of 2-butanol ([2]; 4.3 % w/v, 30° C.): + | Growth of L. plantarum PN0512 in the presence of 2-butanol ([2]; 4.3 % w/v, 37° C.): + | Growth of L. plantarum PN0512 in the presence of 2-butanol ([2]; 4.7 % w/v, 25° C.): + | Growth of L. plantarum PN0512 in the presence of 2-butanol ([2]; 4.7 % w/v, 30° C.): + | Growth of L. plantarum PN0512 in the presence of 2-butanol ([2]; 4.7 % w/v, 37° C.): − | Growth of L. plantarum PN0512 in the presence of 2-butanol ([2]; 4.9 % w/v, 25° C.): + | Growth of L. plantarum PN0512 in the presence of 2-butanol ([2]; 4.9 % w/v, 30° C.): − | Growth of L. plantarum PN0512 in the presence of 2-butanol ([2]; 5.2 % w/v, 25° C.): + | Growth of L. plantarum PN0512 in the presence of 2-butanol ([2]; 5.2 % w/v, 37° C.): − | Growth of L. plantarum PN0512 in the presence of 2-butanol ([2]; 5.6 % w/v, 25° C.): − | Growth of L. plantarum PN0512 in the presence of 2-butanol ([2]; 5.6 % w/v, 37° C.): − | Growth of L. plantarum PN0512 in the presence of 2-butanol ([2]; 6.0 % w/v, 37° C.): − | Growth of L. plantarum PN0512 in the presence of 2-butanol ([2]; 6.4 % w/v, 37° C.): − | Growth of L. plantarum PN0512 in the presence of 2-butanol ([2]; 7.3 % w/v, 37° C.): − | Concentration in which growth was observed ([2]; 25° C.): 5.2% | Concentration in which growth was not observed ([2]; 30° C.): 4.9% | Concentration in which growth was observed ([2]; 30° C.): 4.7% | Concentration in which growth was not observed ([2]; 37° C.): 4.5% | Concentration in which growth was observed ([2]; 37° C.): 4.3% | Growth of L. plantarum PN0512 in the presence of 2-butanol ([2]; […] w/v, 30° C.): +

CC(CN)OP(=O)(O)O (racemic) [Aminopropanol O-phosphate, DL-1-amino-2-propanol O-phosphate]
OD670, 10 min [3, 4]: 1.229 | OD670, 30 min [3, 4]: 2.264 | OD670, 10 min [3, 5]: 0.855 | OD670, 30 min [3, 5]: 1.454

CC(C)CO [isobutanol]
Growth of L. plantarum PN0512 in the presence of isobutanol ([2]; 0.5 % w/v, 37° C.): + | Growth of L. plantarum PN0512 in the presence of isobutanol ([2]; 1.0 % w/v, 37° C.): + | Growth of L. plantarum PN0512 in the presence of isobutanol ([2]; 1.5 % w/v, 25° C.): + | Growth of L. plantarum PN0512 in the presence of isobutanol ([2]; 1.5 % w/v, 30° C.): + | Growth of L. plantarum PN0512 in the presence of isobutanol ([2]; 1.5 % w/v, 37° C.): + | Growth of L. plantarum PN0512 in the presence of isobutanol ([2]; 1.6 % w/v, 37° C.): + | Growth of L. plantarum PN0512 in the presence of isobutanol ([2]; 1.8 % w/v, 37° C.): + | Growth of L. plantarum PN0512 in the presence of isobutanol ([2]; 2.0 % w/v, 25° C.): + | Growth of L. plantarum PN0512 in the presence of isobutanol ([2]; 2.0 % w/v, 30° C.): + | Growth of L. plantarum PN0512 in the presence of isobutanol ([2]; 2.0 % w/v, 37° C.): + | Growth of L. plantarum PN0512 in the presence of isobutanol ([2]; 2.1 % w/v, 37° C.): + | Growth of L. plantarum PN0512 in the presence of isobutanol ([2]; 2.3 % w/v, 37° C.): + | Growth of L. plantarum PN0512 in the presence of isobutanol ([2]; 2.4 % w/v, 25° C.): + | Growth of L. plantarum PN0512 in the presence of isobutanol ([2]; 2.4 % w/v, 30° C.): + | Growth of L. plantarum PN0512 in the presence of isobutanol ([2]; 2.4 % w/v, 37° C.): + | Growth of L. plantarum PN0512 in the presence of isobutanol ([2]; 2.7 % w/v, 25° C.): + | Growth of L. plantarum PN0512 in the presence of isobutanol ([2]; 2.7 % w/v, 30° C.): + | Growth of L. plantarum PN0512 in the presence of isobutanol ([2]; 2.7 % w/v, 37° C.): + | Growth of L. plantarum PN0512 in the presence of isobutanol ([2]; 2.9 % w/v, 25° C.): + | Growth of L. plantarum PN0512 in the presence of isobutanol ([2]; 2.9 % w/v, 30° C.): + | Growth of L. plantarum PN0512 in the presence of isobutanol ([2]; 2.9 % w/v, 37° C.): + | Growth of L. plantarum PN0512 in the presence of isobutanol ([2]; 3.1 % w/v, 25° C.): + | Growth of L. plantarum PN0512 in the presence of isobutanol ([2]; 3.1 % w/v, 30° C.): + | Growth of L. plantarum PN0512 in the presence of isobutanol ([2]; 3.1 % w/v, 37° C.): + | Growth of L. plantarum PN0512 in the presence of isobutanol ([2]; 3.3 % w/v, 25° C.): + | Growth of L. plantarum PN0512 in the presence of isobutanol ([2]; 3.3 % w/v, 30° C.): −^2 | Growth of L. plantarum PN0512 in the presence of isobutanol ([2]; 3.4 % w/v, 37° C.): − | Growth of L. plantarum PN0512 in the presence of isobutanol ([2]; 3.6 % w/v, 25° C.): − | Growth of L. plantarum PN0512 in the presence of isobutanol ([2]; 3.8 % w/v, 37° C.): − | Growth of L. plantarum PN0512 in the presence of isobutanol ([2]; 4.3 % w/v, 37° C.): − | Concentration in which growth was observed ([2]; 25° C.): 3.5% | Concentration in which growth was not observed ([2]; 30° C.): 3.3% | Concentration in which growth was observed ([2]; 30° C.): 3.1% | Concentration in which growth was not observed ([2]; 37° C.): 3.4% | Concentration in which growth was observed ([2]; 37° C.): 3.1% | Growth of L. plantarum PN0512 in the presence of isobutanol ([2]; […] w/v, 25° C.): + | Growth of L. plantarum PN0512 in the presence of isobutanol ([2]; […] w/v, 37° C.): +
